# From patent US10669238B2, “Irreversible bruton's tyrosine kinase inhibitor” (HEFEI INSTITUTES OF PHYSICAL SCIENCE, CHINESE ACADEMY OF …, priority 2016, dated 2020)
# Target: BTK protein kinase (Homo sapiens, UniProt Q06187)
# Test: In vitro enzymatic activity against BTK (ADP-Glo)
# Assay type: biochemical
# Conditions: compound with BTK 4 hours at room temperature; ATP 10 μM, 37° C. 1 hour; values in nM
# Protocol: In vitro enzymatic activity of the compounds against BTK was determined in a experimental assay of in vitro enzymatic activity using […] kit (purchased from Progema, USA).
# 9 μL of BTK protein kinase (at a concentration of 1.5 ng/μL) was used to react with compounds (1 μL) shown in the following table that were diluted three times in gradient at room temperature for 4 hours (the final concentration of the compound being 10 μM, 3 μM, 1 μM, 0.3 μM, 0.1 μM, 0.03 μM, 0.01 μM, 0.003 μM);
# 2 μL of ATP and 3 μL of the substrate Poly(4:1 Glu, Tyr)Peptide (Promega, USA) (the final concentrations being 10 μM and 0.2 μg/μL, respectively) were added to allow reaction at 37° C. for 1 hour;
# 5 μL of BTK kinase solution after reaction was taken and added into 5 μL of ADP-Glo™ (Promega, USA) reagent to allow reaction at room temperature for 40 mins so as to terminate the kinase reaction and exhaust the remaining ATP;
# 10 μL kinase detecting reagent was added to convert ADP to ATP, and newly synthesized ATP was detected using coupled luciferase/[…] reaction, then the IC50 values were calculated by using a plotting method based on the Envision reading.
# Sequence of BTK protein kinase (Q06187 whole entry): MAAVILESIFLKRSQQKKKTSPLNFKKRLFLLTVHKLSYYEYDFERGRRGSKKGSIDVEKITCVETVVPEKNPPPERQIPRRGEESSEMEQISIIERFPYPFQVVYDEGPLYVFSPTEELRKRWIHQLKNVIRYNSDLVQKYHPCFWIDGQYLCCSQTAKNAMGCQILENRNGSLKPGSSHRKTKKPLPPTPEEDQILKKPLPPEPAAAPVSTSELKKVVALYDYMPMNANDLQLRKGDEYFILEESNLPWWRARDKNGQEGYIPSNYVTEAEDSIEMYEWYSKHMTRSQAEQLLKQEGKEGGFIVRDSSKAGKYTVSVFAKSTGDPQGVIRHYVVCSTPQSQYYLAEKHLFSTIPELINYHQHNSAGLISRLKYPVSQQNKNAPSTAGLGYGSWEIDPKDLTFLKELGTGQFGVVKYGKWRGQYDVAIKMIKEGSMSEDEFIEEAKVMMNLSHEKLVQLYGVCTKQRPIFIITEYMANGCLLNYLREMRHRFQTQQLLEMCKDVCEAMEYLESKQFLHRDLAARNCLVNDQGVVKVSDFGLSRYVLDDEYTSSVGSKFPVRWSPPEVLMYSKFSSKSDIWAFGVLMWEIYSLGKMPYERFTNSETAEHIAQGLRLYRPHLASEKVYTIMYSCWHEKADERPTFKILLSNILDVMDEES
row,Structure (SMILES),IC50
1,"C=CC(=O)Nc1cc(Nc2cc(-c3cccc(NC(=O)c4ccc(N(C)C)cc4)c3C)cn(C)c2=O)ccc1C(=O)N1CCC(OC)CC1 [Compound 52, N-(3-(5-((3-acrylamide-4-(4-methoxypiperidin-1-carbonyl)phenyl)amino)-1-methyl-6-oxo-1,6-dihydropyridin-3-yl)-2-methylphenyl)-4-(dimethylamino)benzoylamide]",586 nM
2,"C=CC(=O)Nc1cc(Nc2cc(-c3cccc(NC(=O)c4ccc(N(C)C)cc4)c3C)cn(C)c2=O)ccc1C(=O)NCCOC [Compound 53, 2-acrylamide-4-((5-(3-(4-(dimethylamino)benzoylamide)-2-methylphenyl)-1-methyl-2-oxo-1,2-dihydropyridin-3-yl)amino)-N-(2-methoxyethyl)benzoylamide]",667 nM
3,"C=CC(=O)Nc1cc(Nc2cc(-c3cccc(NC(=O)c4ccc(C(C)(C)C)cc4)c3C)cn(C)c2=O)ccc1C(=O)N1CCN(C(=O)OC(C)(C)C)CC1 [Compound 38, tertbutyl 4-(2-acrylamide-4-((5-(3-(4-(tert-butyl)benzamide)-2-methylphenyl)-1-methyl-2-oxo-1,2-dihydropyridin-3-yl)amino)benzoyl)piperazin-1-carboxylate]",85 nM
4,"CCC(=O)Nc1cc(Nc2cc(-c3cccc(NC(=O)c4ccc(C(C)(C)C)cc4)c3C)cn(C)c2=O)ccc1C(=O)N1CCN(C(=O)OC(C)(C)C)CC1 [Compound 39, tertbutyl 4-(2-propanamide-4-((5-(3-(4-(tert-butyl)benzamide)-2-methylphenyl)-1-methyl-2-oxo-1,2-dihydropyridin-3-yl)amino)benzoyl)piperazin-1-carboxylate]",503 nM
5,"C=CC(=O)Nc1cc(Nc2cc(-c3cccc(NC(=O)c4cc5ccccc5s4)c3C)cn(C)c2=O)ccc1N1CCN(C(C)C)CC1 [Compound 90, N-(3-(5-((3-acrylamide-4-(4-isopropylpiperazin-1-yl)phenyl)amino)-1-methyl-6-oxo-1,6-dihydropyridin-3-yl)-2-methylphenyl)benzo[b]thiophene-2-carboxamide]",6.5 nM
6,"C=CC(=O)Nc1cc(Nc2cc(-c3cccc(NC(=O)c4ccc(C(C)(C)C)cc4)c3C)cn(C)c2=O)ccc1C(=O)N1CCCC(O)C1 (stereo not shown) [Compound 47, N-(3-(5-((3-acrylamide-4-(3-hydroxypiperidin-1-carbonyl)phenyl)amino)-1-methyl-6-oxo-1,6-dihydropyridin-3-yl)-2-methylphenyl)-4-(tert-butyl)benzamide]",24 nM
7,"C=CC(=O)Nc1cc(Nc2cc(-c3cccc(NC(=O)c4cccc(C(F)(F)F)c4)c3C)cn(C)c2=O)ccc1C(=O)N1CCOCC1 [Compound 57, N-(3-(5-((3-acrylamide-4-(morpholin-4-carbonyl)phenyl)amino)-1-methyl-6-oxo-1,6-dihydropyridin-3-yl)-2-methylphenyl)-3-(trifluoromethyl)benzoylamide]",> 10000 nM
8,"Cc1c(NC(=O)c2ccc(C(C)(C)C)cc2)cccc1-c1cc(Nc2ccc(C(=O)N3CCOCC3)c(NC(=O)CCl)c2)c(=O)n(C)c1 [Compound 2, N-(3-(5-((3-chloroacetamide-4-(morpholin-4-carbonyl)phenyl)amino)-1-methyl-6-oxo-1,6-dihydropyridin-3-yl)-2-methylphenyl)-4-(tert-butyl)benzamide]",37.9 nM
9,"CCC(=O)Nc1cc(Nc2cc(-c3cccc(NC(=O)c4cc5c(s4)CCCC5)c3C)cn(C)c2=O)ccc1C(=O)N1CCOCC1 [Compound 67, N-(3-(5-((3-propanamide-4-(morpholin-4-carbonyl)phenyl)amino)-1-methyl-6-oxo-1,6-dihydropyridin-3-yl)-2-methylphenyl)-4,5,6,7-tetrahydrobenzo[b]thiophene-2-carboxamide]",25 nM
10,"Cc1c(NC(=O)c2ccc3c(c2)OCO3)cccc1-c1cc(Nc2ccc(C(=O)N3CCOCC3)c(NC(=O)CCl)c2)c(=O)n(C)c1 [Compound 19, N-(3-(5-((3-chloroacetamide-4-(morpholin-4-carbonyl)phenyl)amino)-1-methyl-6-oxo-1,6-dihydropyridin-3-yl)-2-methylphenyl)-benzo[d][1,3]dioxolanyl-5-carboxamide]",197 nM
